# Laboratory results published in article PMC11589570, “Critical assessment of LC3/GABARAP ligands used for degrader development and ligandability of LC3/GABARAP binding pockets” (Nature Communications, 2024).
# Several values for one entry are separate records, joined by “and”; a condition that tells them apart may be missing. Identical values can stand only once.
# Tests used:
# [1] = tested on: RPE1 cells; experiment: Cell growth assay (IncuCyte confluence over 72 h); type: cell-based
# Protocol: (§1) Cell growth assay: Cell confluence (phase) from RPE1 (hTERT RPE-1, ATCC CLR_4000) or U2OS (ATCC, HTB-96) cell lines were monitored over time with the IncuCyte S3 (Sartiorius, Germany) in 384-well plates in 50 ul DMEM media, supplemented with 10% Fetal Bovine Serum (FBS) 1% penicillin/Streptomycin and incubated 24 h before treatment. Experiment was performed as described in Cano-Franco et al.. 50 μl of media containing either 2× final concentration of indicated compounds in or control compounds (final conc.: 0.1% DMSO, 250 nM Torin1, 200 ng/mL Bafilomycin) were added and images were taken every two hours over 72 h. Cell confluence is represented as % of area covered by cells. Each data point represents the average ratio or confluence obtained from three individual wells of the plate.
# [2] = tested on: U2OS cells; experiment: Cell growth assay (IncuCyte confluence over 72 h); type: cell-based; set-up: key to U2OS cell growth: % of well area covered by cells (confluence)
# Protocol: as §1, with “50 μl of media containing either 2× final concentration of indicated compounds in or control compounds (final conc.: 0.1% DMSO, 250 nM Torin1, 200 ng/mL Bafilomycin) were added and images were taken every two hours over 72 h.” left out
# [3] = biological target: LC3A (Homo sapiens, UniProt Q9H492); experiment: FP assay with Cy5-labelled p62 LIR tracer (protein titration and tracer displacement); type: binding; conditions: LC3A tracer displacement, normalized on p62-LIR positive control
smiles,measurement,setting,value
O=C1CC(c2ccc(Cl)c(Cl)c2)CC(=O)C1=CNCCN1CCNCC1 (stereo not shown) [Cov-3],RPE1 cell growth,"[1]; 100 nM, 0 h",12 and 21 and 11
same,RPE1 cell growth,"[1]; 100 nM, 2 h",14 and 25 and 13
same,RPE1 cell growth,"[1]; 100 nM, 6 h",19 and 28 and 14
same,RPE1 cell growth,"[1]; 100 nM, 12 h",20 and 32 and 17
same,RPE1 cell growth,"[1]; 500 nM, 0 h",15 and 23 and 13
same,RPE1 cell growth,"[1]; 500 nM, 2 h",16 and 27 and 14
same,RPE1 cell growth,"[1]; 500 nM, 6 h",20 and 32 and 17
same,RPE1 cell growth,"[1]; 500 nM, 10 h",21 and 34 and 17
same,RPE1 cell growth,"[1]; 500 nM, 12 h",23 and 35 and 18
same,RPE1 cell growth,"[1]; 1 uM, 0 h",13 and 24
same,RPE1 cell growth,"[1]; 1 uM, 8 h",16 and 20 and 31
same,RPE1 cell growth,"[1]; 1 uM, 10 h",17 and 18 and 32
same,RPE1 cell growth,"[1]; 1 uM, 12 h",18 and 19 and 34
same,RPE1 cell growth,"[1]; 3 uM, 0 h",16 and 20 and 13
same,RPE1 cell growth,"[1]; 3 uM, 2 h",21 and 23 and 14
same,RPE1 cell growth,"[1]; 3 uM, 4 h",23 and 26 and 14
same,RPE1 cell growth,"[1]; 3 uM, 6 h",24 and 27 and 16
same,RPE1 cell growth,"[1]; 3 uM, 8 h",24 and 29 and 17
same,RPE1 cell growth,"[1]; 3 uM, 10 h",23 and 29 and 18
same,RPE1 cell growth,"[1]; 3 uM, 12 h",26 and 31 and 20
same,RPE1 cell growth,"[1]; 5 uM, 0 h",16 and 20 and 13
same,RPE1 cell growth,"[1]; 5 uM, 2 h",20 and 24 and 15
same,RPE1 cell growth,"[1]; 5 uM, 4 h",22 and 26 and 15
same,RPE1 cell growth,"[1]; 5 uM, 6 h",23 and 28 and 18
same,RPE1 cell growth,"[1]; 5 uM, 8 h",24 and 30 and 18
same,RPE1 cell growth,"[1]; 5 uM, 10 h",22 and 29 and 19
same,RPE1 cell growth,"[1]; 5 uM, 12 h",23 and 32 and 20
same,RPE1 cell growth,"[1]; 10 uM, 0 h",16 and 20 and 13
same,RPE1 cell growth,"[1]; 10 uM, 2 h",19 and 23 and 17
same,RPE1 cell growth,"[1]; 10 uM, 4 h",22 and 25 and 18
same,RPE1 cell growth,"[1]; 10 uM, 6 h",22 and 29 and 20
same,RPE1 cell growth,"[1]; 10 uM, 8 h",24 and 31 and 21
same,RPE1 cell growth,"[1]; 10 uM, 10 h",23 and 30
same,RPE1 cell growth,"[1]; 10 uM, 12 h",26 and 32 and 23
same,U2OS cell growth,"[2]; 100 nM, time 10 h",33.6743 and 37.4722 and 28.8223
same,U2OS cell growth,"[2]; 100 nM, time 0 h",14.5416 and 22.9345 and 12.3076
same,U2OS cell growth,"[2]; 100 nM, time 2 h",20.4728 and 24.9456 and 18.1328
same,U2OS cell growth,"[2]; 100 nM, time 4 h",32.466 and 35.1005 and 23.9495
same,U2OS cell growth,"[2]; 100 nM, time 6 h",27.7123 and 37.9082 and 23.0201
same,U2OS cell growth,"[2]; 100 nM, time 8 h",36.178 and 29.1087 and 28.1634
same,U2OS cell growth,"[2]; 500 nM, time 0 h",19.4597 and 15.6761 and 23.7515
same,U2OS cell growth,"[2]; 500 nM, time 2 h",17.2401 and 19.2948 and 26.8842
same,U2OS cell growth,"[2]; 500 nM, time 4 h",23.0548 and 20.6729 and 33.4847
same,U2OS cell growth,"[2]; 500 nM, time 6 h",31.9275 and 22.0748 and 27.2708
same,U2OS cell growth,"[2]; 500 nM, time 8 h",20.0458 and 23.4357 and 28.1267
same,U2OS cell growth,"[2]; 1 uM, time 10 h",29.6152
same,U2OS cell growth,"[2]; 1 uM, time 0 h",18.8183 and 26.6645 and 23.9984
same,U2OS cell growth,"[2]; 1 uM, time 2 h",21.0614 and 26.8371 and 29.3905
same,U2OS cell growth,"[2]; 1 uM, time 4 h",24.6352 and 31.1306 and 32.3496
same,U2OS cell growth,"[2]; 1 uM, time 6 h",26.5224 and 36.4121 and 30.4909
same,U2OS cell growth,"[2]; 1 uM, time 8 h",20.3314 and 37.2236 and 29.7059
same,U2OS cell growth,"[2]; 3 uM, time 0 h",36.1248 and 21.9705 and 35.4647
same,U2OS cell growth,"[2]; 3 uM, time 2 h",38.4423 and 25.3153 and 30.1014
same,U2OS cell growth,"[2]; 3 uM, time 4 h",41.4594 and 31.6601 and 38.4044
same,U2OS cell growth,"[2]; 3 uM, time 6 h",35.1153 and 23.5308 and 36.0085
same,U2OS cell growth,"[2]; 3 uM, time 8 h",37.1896 and 25.2973 and 34.3262
same,U2OS cell growth,"[2]; 5 uM, time 10 h",45.8479 and 32.8378 and 36.0561
same,U2OS cell growth,"[2]; 5 uM, time 0 h",35.0072 and 29.5152 and 28.3077
same,U2OS cell growth,"[2]; 5 uM, time 2 h",34.3656 and 30.4257 and 30.1228
same,U2OS cell growth,"[2]; 5 uM, time 4 h",36.9905 and 31.4377 and 28.9247
same,U2OS cell growth,"[2]; 5 uM, time 6 h",42.578 and 38.6163 and 31.6899
same,U2OS cell growth,"[2]; 5 uM, time 8 h",38.0361 and 32.4495 and 27.1279
same,U2OS cell growth,"[2]; 10 uM, time 10 h",36.2219 and 24.7441 and 23.9347
same,U2OS cell growth,"[2]; 10 uM, time 0 h",31.5761 and 18.5024 and 22.4964
same,U2OS cell growth,"[2]; 10 uM, time 2 h",30.3213 and 20.7145 and 20.7242
same,U2OS cell growth,"[2]; 10 uM, time 4 h",34.613 and 22.1736 and 25.1322
same,U2OS cell growth,"[2]; 10 uM, time 6 h",35.028 and 21.2307 and 23.3926
same,U2OS cell growth,"[2]; 10 uM, time 8 h",32.1571 and 22.7698 and 18.9042
CCCCCCC(Sc1nc(Cl)cc(Nc2nc(-c3ccc(Cl)cc3)cs2)n1)C(=O)O (stereo not shown) [TH018],% tracer bound @LC3A,[3],81%
CCCCCCC(Sc1nc(Cl)cc(Nc2nc(-c3ccccc3)cs2)n1)C(=O)O (stereo not shown) [TH020],% tracer bound @LC3A,[3],84%
CCCCCCC(Sc1nc(Cl)cc(Nc2nc(-c3ccc(Br)cc3)cs2)n1)C(=O)O (stereo not shown) [TH026],% tracer bound @LC3A,[3],79%
CCCCCCC(Sc1nc(Cl)cc(Nc2nc(-c3ccc4ccccc4c3)cs2)n1)C(=O)O (stereo not shown) [TH034],% tracer bound @LC3A,[3],79%
CCC(Sc1nc(Cl)cc(Nc2nc(-c3ccc(Cl)cc3)cs2)n1)C(=O)O (stereo not shown) [TH035],% tracer bound @LC3A,[3],85%
CCCCCCC(Sc1nc(Cl)cc(Nc2nc(-c3ccc(F)c(F)c3)cs2)n1)C(=O)O (stereo not shown) [TH044],% tracer bound @LC3A,[3],76%
CCCCCCC(Sc1nc(Cl)cc(Nc2nc(-c3ccc(F)cc3F)cs2)n1)C(=O)O (stereo not shown) [TH054],% tracer bound @LC3A,[3],75%
CCCCCCC(Sc1nc(Cl)cc(Nc2nc(-c3ccc([N+](=O)[O-])cc3)cs2)n1)C(=O)O (stereo not shown) [TH056],% tracer bound @LC3A,[3],61%
CCCCCCC(Sc1nc(Cl)cc(Nc2nc(-c3ccc(Br)cc3)c(C)s2)n1)C(=O)O (stereo not shown) [TH057],% tracer bound @LC3A,[3],94%
COc1ccc(CN(Cc2cccc(C#N)c2)S(=O)(=O)c2ccc(C(=O)O)cc2)cc1 [TH061],% tracer bound @LC3A,[3],83%
CCCCCCC(Sc1nc(Cl)cc(Nc2nc3c(s2)CCc2cc(OC)ccc2-3)n1)C(=O)O (stereo not shown) [TH062],% tracer bound @LC3A,[3],76%
CCCCCCC(Sc1nc(Cl)cc(Nc2nc(-c3ccc(Cl)c(Cl)c3)cs2)n1)C(=O)O (stereo not shown) [TH083],% tracer bound @LC3A,[3],84%
CCCCCCC(Sc1nc(Cl)cc(Nc2nc(-c3ccc(C(F)(F)F)cc3)cs2)n1)C(=O)O (stereo not shown) [TH084],% tracer bound @LC3A,[3],76%
CCCCCCC(Sc1nc(Cl)cc(Nc2nc(-c3ccccc3)c(CC)s2)n1)C(=O)O (stereo not shown) [TH100],% tracer bound @LC3A,[3],77%
CCCCCCC(Sc1nc(Cl)cc(Nc2nc(-c3ccc(Cl)cc3Cl)cs2)n1)C(=O)O (stereo not shown) [TH102],% tracer bound @LC3A,[3],78%
CCCCCCC(Sc1nc(Cl)cc(Nc2nc(-c3ccc(-c4ccccc4)cc3)cs2)n1)C(=O)O (stereo not shown) [TH104],% tracer bound @LC3A,[3],82%
CCCCCCC(Sc1nc(Cl)cc(Nc2nc(C34CC5CC(CC(C5)C3)C4)cs2)n1)C(=O)O (stereo not shown) [TH105],% tracer bound @LC3A,[3],84%
CCC(Sc1nc(Cl)cc(Nc2nc(-c3ccc4ccccc4c3)cs2)n1)C(=O)O (stereo not shown) [TH107],% tracer bound @LC3A,[3],82%
COc1ccc(CN(CC2CCCCC2)S(=O)(=O)c2ccc(C(=O)O)cc2)cc1 [TH119],% tracer bound @LC3A,[3],92%
CCCCCCC(Sc1nc(Cl)cc(Nc2nc(-c3ccc(OC)cc3)cs2)n1)C(=O)O (stereo not shown) [TH121],% tracer bound @LC3A,[3],83%
O=C(O)c1ccc(S(=O)(=O)N(Cc2ccc(Oc3ccccc3)cc2)CC2CCCCC2)cc1 [TH133],% tracer bound @LC3A,[3],82%
CCCCCCC(Sc1nc2ccc(NC(=O)c3ccc(C(C)(C)C)cc3)cc2s1)C(=O)O (stereo not shown) [TH177],% tracer bound @LC3A,[3],85%
CCCCCCC(Sc1nc2ccc(NC(=O)c3ccc(-c4ccccc4)cc3)cc2s1)C(=O)O (stereo not shown) [TH181],% tracer bound @LC3A,[3],78%
CCCCCCC(Sc1nc2ccc(NCc3ccc(C(C)(C)C)cc3)cc2s1)C(=O)O (stereo not shown) [TH185],% tracer bound @LC3A,[3],82%
CCCCC(Sc1nc2ccc(NC(=O)c3ccc(C(C)(C)C)cc3)cc2s1)C(=O)O (stereo not shown) [TH188],% tracer bound @LC3A,[3],89%
CCCCCCC(Sc1nc2ccc(NCc3ccc4ccccc4c3)cc2s1)C(=O)O (stereo not shown) [TH191],% tracer bound @LC3A,[3],78%
CCCCCCC(Sc1nc2ccc(NCc3ccccc3)cc2s1)C(=O)O (stereo not shown) [TH195],% tracer bound @LC3A,[3],78%
CCCCCCC(Sc1nc2ccc(NCc3ccc(Cl)c(Cl)c3)cc2s1)C(=O)O (stereo not shown) [TH198],% tracer bound @LC3A,[3],79%
CCCCCCC(Sc1nc2ccc(NCc3ccc(-c4ccccc4)cc3)cc2s1)C(=O)O (stereo not shown) [TH200],% tracer bound @LC3A,[3],72%
O=C(NCc1ccccc1)c1ccc(S(=O)(=O)Nc2ccccc2)cc1 [TH253],% tracer bound @LC3A,[3],88%
Cc1ccc(NS(=O)(=O)c2ccc(C(=O)N(C)Cc3ccccc3)cc2)cc1 [TH281],% tracer bound @LC3A,[3],95%
CN(Cc1ccccc1)C(=O)c1ccc(S(=O)(=O)Nc2ccccc2)cc1 [TH676],% tracer bound @LC3A,[3],84%
